Experimental data reported in PMC12520178, “Turn-engineering tunes the conformational rigidity of β-hairpin AMPs in achieving membrane selectivity and killing drug-resistant ESKAPE pathogens” (Chemical Science, 2025).
Values after ≈ are worked out from the molar mass of the structure shown. Where a SMILES comes first, the peptide text is derived from it. [ ]: non-standard residue; d: D form. NMeR = CN[C@@H](CCCNC(=N)N)C(=O)O; dNMeR = CN[C@H](CCCNC(=N)N)C(=O)O

Key:
[1] = tested on: Pseudomonas aeruginosa; type: cell-based
[2] = tested on: Klebsiella pneumoniae; type: cell-based
[3] = tested on: Escherichia coli; type: cell-based
[4] = tested on: Acinetobacter baumannii; type: cell-based
[5] = tested on: Staphylococcus aureus; experiment: microbe, parasite or virus in culture; type: cell-based
[6] = tested on: human red blood cells; settings: red cells of human

## CC(C)[C@@H](NC(=O)[C@@H](CCCNC(=N)N)N(C)C(=O)[C@H](C)NC(=O)[C@H](NC(=O)[C@@H](CCCNC(=N)N)NC(=O)[C@@H](C)NC(=O)[C@@H](Cc1ccc(O)cc1)NC(=O)[C@H](NC(=O)[C@H](NC(=O)[C@@H](Cc1c[nH]c2ccccc12)NC(=O)[C@H](N)CCCNC(=N)N)[C@H](C)O)C(C)C)C(C)C)C(=O)N[C@H](CCCNC(=N)N)C(=O)N[C@H](Cc1ccc(O)cc1)C(=O)N[C@H](CCCNC(=N)N)C(=O)N[C@H](CCCNC(=N)N)C(=O)N[C@@H](C(=O)N[C@H](Cc1c[nH]c2ccccc12)C(=O)O)[C@H](C)O [1f] (H-[dR][dW][dT][dV][dY][dA][dR][dV]A[dNMeR][dV][dR][dY][dR][dR][dT][dW]-OH)
[1]
  MIC (μM) pa: 3.1 µM (≈ 7.16 µg/mL)
[2]
  MIC (μM) kp: 3.1 µM (≈ 7.16 µg/mL)
[3]
  MIC90: 0.4 µM (≈ 0.924 µg/mL)
  MIC (μM) ec: 0.4 µM (≈ 0.924 µg/mL)
[4]
  MIC (μM) ab: 3.1 µM (≈ 7.16 µg/mL)
[5]
  MIC (μM) sa: 0.8 µM (≈ 1.85 µg/mL)
[6]
  MHC10 (μM), minimum hemolytic concentration: 100 µM

## CC(C)C[C@H](NC(=O)[C@H](CCCNC(=N)N)NC(=O)CNC(=O)CNC(=O)[C@@H](N)CCCNC(=N)N)C(=O)N[C@H](C(=O)N[C@@H](Cc1ccc(O)cc1)C(=O)N[C@H](C(=O)N[C@@H](CCCNC(=N)N)C(=O)N[C@@H](CCCNC(=N)N)C(=O)N[C@@H](CCCNC(=N)N)C(=O)N[C@@H](Cc1ccccc1)C(=O)N[C@H](C(=O)N[C@H](C(=O)N[C@H](C(=O)N[C@H](C(=O)NCC(=O)N[C@@H](CCCNC(=N)N)C(N)=O)C(C)C)[C@@H](C)O)C(C)C)[C@@H](C)O)[C@@H](C)O)[C@@H](C)O [2c] (H-RGGRLTYTRRRFTVTVGR-NH2)
[1]
  MIC (μM) pa: 3.1 µM (≈ 6.67 µg/mL)
[2]
  MIC (μM) kp: 3.1 µM (≈ 6.67 µg/mL)
[3]
  MIC90: 1 µM (≈ 2.15 µg/mL)
[4]
  MIC (μM) ab: 3.1 µM (≈ 6.67 µg/mL)
[5]
  MIC (μM) sa: 6.3 µM (≈ 13.6 µg/mL)
[6]
  MHC10 (μM), minimum hemolytic concentration: >200 µM

## CC(C)C[C@H](NC(=O)[C@H](CCCNC(=N)N)NC(=O)CNC(=O)CNC(=O)[C@@H](N)CCCNC(=N)N)C(=O)N[C@H](C(=O)N[C@@H](Cc1ccc(O)cc1)C(=O)N[C@H](C(=O)N[C@@H](CCCNC(=N)N)C(=O)N[C@H](C)C(=O)N(C)[C@@H](CCCNC(=N)N)C(=O)N[C@@H](Cc1ccccc1)C(=O)N[C@H](C(=O)N[C@H](C(=O)N[C@H](C(=O)N[C@H](C(=O)NCC(=O)N[C@@H](CCCNC(=N)N)C(N)=O)C(C)C)[C@@H](C)O)C(C)C)[C@@H](C)O)[C@@H](C)O)[C@@H](C)O [2d] (H-RGGRLTYTR[dA][NMeR]FTVTVGR-NH2)
[1]
  MIC (μM) pa: 1.6 µM (≈ 3.33 µg/mL)
[2]
  MIC (μM) kp: 0.8 µM (≈ 1.66 µg/mL)
[3]
  MIC90: 0.4 µM (≈ 0.832 µg/mL)
[4]
  MIC (μM) ab: 0.4 µM (≈ 0.832 µg/mL)
[5]
  MIC (μM) sa: 3.1 µM (≈ 6.45 µg/mL)
[6]
  MHC10 (μM), minimum hemolytic concentration: 100 µM

## CC(C)C[C@@H](NC(=O)[C@@H](CCCNC(=N)N)NC(=O)CNC(=O)CNC(=O)[C@H](N)CCCNC(=N)N)C(=O)N[C@@H](C(=O)N[C@H](Cc1ccc(O)cc1)C(=O)N[C@@H](C(=O)N[C@H](CCCNC(=N)N)C(=O)N[C@@H](C)C(=O)N(C)[C@H](CCCNC(=N)N)C(=O)N[C@H](Cc1ccccc1)C(=O)N[C@@H](C(=O)N[C@@H](C(=O)N[C@@H](C(=O)N[C@@H](C(=O)NCC(=O)N[C@H](CCCNC(=N)N)C(N)=O)C(C)C)[C@H](C)O)C(C)C)[C@H](C)O)[C@H](C)O)[C@H](C)O [2f] (H-[dR]GG[dR][dL][dT][dY][dT][dR]A[dNMeR][dF][dT][dV][dT][dV]G[dR]-NH2)
[1]
  MIC (μM) pa: 1.6 µM (≈ 3.33 µg/mL)
[2]
  MIC (μM) kp: 3.1 µM (≈ 6.45 µg/mL)
[3]
  MIC90: 0.4 µM (≈ 0.832 µg/mL)
  MIC (μM) ec: 0.4 µM (≈ 0.832 µg/mL)
[4]
  MIC (μM) ab: 2.3 µM (≈ 4.79 µg/mL)
[5]
  MIC (μM) sa: 2.3 µM (≈ 4.79 µg/mL)
[6]
  MHC10 (μM), minimum hemolytic concentration: >200 µM

## CC(C)[C@H](NC(=O)[C@H](CCCNC(=N)N)NC(=O)[C@H](Cc1ccccc1)NC(=O)[C@@H](NC(=O)[C@H](Cc1c[nH]c2ccccc12)NC(=O)[C@H](CCCNC(=N)N)NC(=O)[C@@H](N)CCCNC(=N)N)[C@@H](C)O)C(=O)N[C@H](C(=O)N[C@@H](Cc1ccc(O)cc1)C(=O)N[C@@H](CCCNC(=N)N)C(=O)NCC(=O)N[C@@H](Cc1ccccc1)C(=O)N[C@H](C(=O)N[C@@H](Cc1ccc(O)cc1)C(=O)N[C@@H](CCCNC(=N)N)C(=O)N[C@@H](CCCCN)C(=O)N[C@H](C(=O)N[C@@H](CCCNC(=N)N)C(N)=O)[C@@H](C)O)[C@@H](C)O)[C@@H](C)O [3c] (H-RRWTFRVTYRGFTYRKTR-NH2)
[1]
  MIC (μM) pa: 6.3 µM (≈ 15.4 µg/mL)
[2]
  MIC (μM) kp: 6.3 µM (≈ 15.4 µg/mL)
[3]
  MIC90: 1.9 µM (≈ 4.65 µg/mL)
[4]
  MIC (μM) ab: 3.1 µM (≈ 7.59 µg/mL)
[5]
  MIC (μM) sa: 6.3 µM (≈ 15.4 µg/mL)
[6]
  MHC10 (μM), minimum hemolytic concentration: 100 µM

## CC(C)[C@H](NC(=O)[C@H](CCCNC(=N)N)NC(=O)[C@H](Cc1ccccc1)NC(=O)[C@@H](NC(=O)[C@H](Cc1c[nH]c2ccccc12)NC(=O)[C@H](CCCNC(=N)N)NC(=O)[C@@H](N)CCCNC(=N)N)[C@@H](C)O)C(=O)N[C@H](C(=O)N[C@@H](Cc1ccc(O)cc1)C(=O)N[C@H](C)C(=O)N(C)[C@@H](CCCNC(=N)N)C(=O)N[C@@H](Cc1ccccc1)C(=O)N[C@H](C(=O)N[C@@H](Cc1ccc(O)cc1)C(=O)N[C@@H](CCCNC(=N)N)C(=O)N[C@@H](CCCCN)C(=O)N[C@H](C(=O)N[C@@H](CCCNC(=N)N)C(N)=O)[C@@H](C)O)[C@@H](C)O)[C@@H](C)O [3d] (H-RRWTFRVTY[dA][NMeR]FTYRKTR-NH2)
[1]
  MIC (μM) pa: 0.4 µM (≈ 0.991 µg/mL)
[2]
  MIC (μM) kp: 2.4 µM (≈ 5.95 µg/mL)
[3]
  MIC90: 0.4 µM (≈ 0.991 µg/mL)
  MIC (μM) ec: 0.4 µM (≈ 0.991 µg/mL)
[4]
  MIC (μM) ab: 0.8 µM (≈ 1.98 µg/mL)
[5]
  MIC (μM) sa: 3.1 µM (≈ 7.68 µg/mL)
[6]
  MHC10 (μM), minimum hemolytic concentration: 50 µM

## CC(C)[C@@H](NC(=O)[C@@H](CCCNC(=N)N)NC(=O)[C@@H](Cc1ccccc1)NC(=O)[C@H](NC(=O)[C@@H](Cc1c[nH]c2ccccc12)NC(=O)[C@@H](CCCNC(=N)N)NC(=O)[C@H](N)CCCNC(=N)N)[C@H](C)O)C(=O)N[C@@H](C(=O)N[C@H](Cc1ccc(O)cc1)C(=O)N[C@@H](C)C(=O)N(C)[C@H](CCCNC(=N)N)C(=O)N[C@H](Cc1ccccc1)C(=O)N[C@@H](C(=O)N[C@H](Cc1ccc(O)cc1)C(=O)N[C@H](CCCNC(=N)N)C(=O)N[C@H](CCCCN)C(=O)N[C@@H](C(=O)N[C@H](CCCNC(=N)N)C(N)=O)[C@H](C)O)[C@H](C)O)[C@H](C)O [3f] (H-[dR][dR][dW][dT][dF][dR][dV][dT][dY]A[dNMeR][dF][dT][dY][dR][dK][dT][dR]-NH2)
[1]
  MIC (μM) pa: 1.6 µM (≈ 3.96 µg/mL)
[2]
  MIC (μM) kp: 3.1 µM (≈ 7.68 µg/mL)
[3]
  MIC90: 0.4 µM (≈ 0.991 µg/mL)
  MIC (μM) ec: 0.4 µM (≈ 0.991 µg/mL)
[4]
  MIC (μM) ab: 1.6 µM (≈ 3.96 µg/mL)
[5]
  MIC (μM) sa: 1.2 µM (≈ 2.97 µg/mL)
[6]
  MHC10 (μM), minimum hemolytic concentration: 100 µM

## CC[C@H](C)[C@H](NC(=O)CNC(=O)[C@H](CCCNC(=N)N)NC(=O)[C@H](Cc1ccc(O)cc1)NC(=O)[C@@H](NC(=O)[C@@H](NC(=O)[C@H](CCCNC(=N)N)NC(=O)[C@H](Cc1ccccc1)NC(=O)[C@@H](NC(=O)[C@H](Cc1c[nH]c2ccccc12)NC(=O)[C@@H](N)CCCCN)[C@@H](C)O)C(C)C)[C@@H](C)O)C(=O)N[C@H](C(=O)N[C@@H](Cc1ccc(O)cc1)C(=O)N[C@@H](CCCNC(=N)N)C(=O)N[C@@H](CCCNC(=N)N)C(=O)N[C@H](C(=O)N[C@@H](CCCNC(=N)N)C(N)=O)[C@@H](C)O)[C@@H](C)O [4c] (H-KWTFRVTYRGITYRRTR-NH2)
[1]
  MIC (μM) pa: 6.3 µM (≈ 14.2 µg/mL)
[2]
  MIC (μM) kp: 6.3 µM (≈ 14.2 µg/mL)
[3]
  MIC90: 2.2 µM (≈ 4.97 µg/mL)
[4]
  MIC (μM) ab: 1.6 µM (≈ 3.62 µg/mL)
[5]
  MIC (μM) sa: 12.5 µM (≈ 28.2 µg/mL)
[6]
  MHC10 (μM), minimum hemolytic concentration: 100 µM

## CC[C@H](C)[C@H](NC(=O)[C@H](CCCNC(=N)N)N(C)C(=O)[C@@H](C)NC(=O)[C@H](Cc1ccc(O)cc1)NC(=O)[C@@H](NC(=O)[C@@H](NC(=O)[C@H](CCCNC(=N)N)NC(=O)[C@H](Cc1ccccc1)NC(=O)[C@@H](NC(=O)[C@H](Cc1c[nH]c2ccccc12)NC(=O)[C@@H](N)CCCCN)[C@@H](C)O)C(C)C)[C@@H](C)O)C(=O)N[C@H](C(=O)N[C@@H](Cc1ccc(O)cc1)C(=O)N[C@@H](CCCNC(=N)N)C(=O)N[C@@H](CCCNC(=N)N)C(=O)N[C@H](C(=O)N[C@@H](CCCNC(=N)N)C(N)=O)[C@@H](C)O)[C@@H](C)O [4d] (H-KWTFRVTY[dA][NMeR]ITYRRTR-NH2)
[1]
  MIC (μM) pa: 1.6 µM (≈ 3.66 µg/mL)
[2]
  MIC (μM) kp: 1.6 µM (≈ 3.66 µg/mL)
[3]
  MIC90: 0.4 µM (≈ 0.915 µg/mL)
[4]
  MIC (μM) ab: 0.8 µM (≈ 1.83 µg/mL)
[5]
  MIC (μM) sa: 3.1 µM (≈ 7.09 µg/mL)
[6]
  MHC10 (μM), minimum hemolytic concentration: 100 µM

## CC(C)C[C@H](NC(=O)[C@H](CCCNC(=N)N)NC(=O)CNC(=O)CNC(=O)[C@@H](N)CCCNC(=N)N)C(=O)N[C@H]1CSSC[C@@H](C(=O)N[C@H](C(=O)NCC(=O)N[C@@H](CCCNC(=N)N)C(N)=O)C(C)C)NC(=O)[C@H](C(C)C)NC(=O)[C@@H]2CSSC[C@H](NC(=O)[C@H](Cc3ccc(O)cc3)NC1=O)C(=O)N[C@@H](CCCNC(=N)N)C(=O)N[C@@H](CCCNC(=N)N)C(=O)N[C@@H](CCCNC(=N)N)C(=O)N[C@@H](Cc1ccccc1)C(=O)N2 [compound 2, reference compound]
[1]
  MIC (μM) pa: 0.6 µM (≈ 1.29 µg/mL)
[2]
  MIC (μM) kp: 0.6 µM (≈ 1.29 µg/mL)
[3]
  MIC90: 0.3 µM (≈ 0.647 µg/mL)
  MIC (μM) ec: 0.3 µM (≈ 0.647 µg/mL)
[4]
  MIC (μM) ab: 0.4 µM (≈ 0.862 µg/mL)
[5]
  MIC (μM) sa: 3.1 µM (≈ 6.68 µg/mL)
[6]
  MHC10 (μM), minimum hemolytic concentration: 3.12 µM
